In article PMC10655782 (Alzheimer's & Dementia : Translational Research & Clinical …, 2023):

Legend:
human SHIP1 Ptase‐C2 = molecular target: T1, human SHIP1 Ptase‐C2 (Homo sapiens, UniProt Q92835); test: Malachite green enzyme assay, hSHIP1^395‐898 Ptase‐C2, substrate PtdIns; type: biochemical
T1 sequence (Q92835 395-898): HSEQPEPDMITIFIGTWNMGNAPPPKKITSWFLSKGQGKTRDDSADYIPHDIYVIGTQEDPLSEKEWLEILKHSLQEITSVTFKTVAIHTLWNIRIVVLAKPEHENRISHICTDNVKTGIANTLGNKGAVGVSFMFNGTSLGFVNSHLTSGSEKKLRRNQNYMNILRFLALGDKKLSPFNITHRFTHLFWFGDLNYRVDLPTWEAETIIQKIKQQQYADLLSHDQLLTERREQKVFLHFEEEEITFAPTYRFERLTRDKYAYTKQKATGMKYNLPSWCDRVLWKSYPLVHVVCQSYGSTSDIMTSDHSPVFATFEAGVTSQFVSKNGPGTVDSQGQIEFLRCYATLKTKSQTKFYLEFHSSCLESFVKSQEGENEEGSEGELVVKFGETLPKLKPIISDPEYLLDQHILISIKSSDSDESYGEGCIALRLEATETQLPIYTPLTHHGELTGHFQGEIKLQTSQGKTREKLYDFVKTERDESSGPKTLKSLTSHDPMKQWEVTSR

[1] = molecular target: T2, HiBit‐SHIP1 (full‐length human SHIP1) (Homo sapiens, UniProt Q92835); test: SplitLuc cellular thermal shift assay; type: cell-based; details: for CETSA % (percent luminescence at the highest dose): highest dose (100 μM); for CETSA TE (target engagement): significant if difference from control at highest dose >3SD
T2 sequence (Q92835 1-1189): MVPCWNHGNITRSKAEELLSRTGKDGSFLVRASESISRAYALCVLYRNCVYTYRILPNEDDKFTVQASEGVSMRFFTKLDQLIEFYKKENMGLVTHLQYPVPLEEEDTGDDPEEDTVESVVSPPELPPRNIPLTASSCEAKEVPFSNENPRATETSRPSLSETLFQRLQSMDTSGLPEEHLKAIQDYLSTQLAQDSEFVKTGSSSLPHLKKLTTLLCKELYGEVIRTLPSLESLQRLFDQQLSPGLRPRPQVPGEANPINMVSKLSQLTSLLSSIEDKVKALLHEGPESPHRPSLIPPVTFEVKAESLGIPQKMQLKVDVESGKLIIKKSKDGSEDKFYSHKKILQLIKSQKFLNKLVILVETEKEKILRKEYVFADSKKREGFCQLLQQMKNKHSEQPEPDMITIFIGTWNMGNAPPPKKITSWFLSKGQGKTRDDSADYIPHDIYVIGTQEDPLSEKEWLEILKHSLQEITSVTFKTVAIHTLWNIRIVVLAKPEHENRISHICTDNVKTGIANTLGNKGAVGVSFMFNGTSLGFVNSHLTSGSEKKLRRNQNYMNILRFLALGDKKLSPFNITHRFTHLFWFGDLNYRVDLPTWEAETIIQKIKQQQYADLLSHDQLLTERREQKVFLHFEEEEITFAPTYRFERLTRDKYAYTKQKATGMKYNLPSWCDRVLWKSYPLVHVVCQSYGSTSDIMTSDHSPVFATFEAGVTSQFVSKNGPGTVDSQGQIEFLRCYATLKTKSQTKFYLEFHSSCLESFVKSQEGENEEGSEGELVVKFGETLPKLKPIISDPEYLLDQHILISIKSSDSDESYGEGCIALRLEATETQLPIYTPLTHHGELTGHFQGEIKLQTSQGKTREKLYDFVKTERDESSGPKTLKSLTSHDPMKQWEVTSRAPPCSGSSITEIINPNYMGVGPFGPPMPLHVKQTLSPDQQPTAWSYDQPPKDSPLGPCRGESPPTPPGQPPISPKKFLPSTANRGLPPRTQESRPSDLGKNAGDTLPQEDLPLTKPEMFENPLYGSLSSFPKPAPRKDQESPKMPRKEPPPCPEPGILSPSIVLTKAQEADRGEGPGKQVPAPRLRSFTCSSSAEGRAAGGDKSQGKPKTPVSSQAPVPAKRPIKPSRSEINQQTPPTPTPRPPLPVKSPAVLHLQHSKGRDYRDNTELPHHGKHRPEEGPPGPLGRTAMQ

HMC3 cells = test: High‐content imaging assay; type: cell-based
BV2 cells = test: High‐content imaging assay; type: cell-based, mouse
primary mouse microglia = test: High‐content imaging phagocytosis assay in primary mouse microglia; type: cell-based

| SMILES | IC50 (human SHIP1 Ptase‐C2) [µM] | AC50 [1] [µM] | CETSA % (percent luminescence at the highest dose) [1] | CETSA TE (target engagement) [1] | cellular phenotype in high‐content imaging (in words) (HMC3 cells) | cellular phenotype in high‐content imaging (in words) (BV2 cells) | EC50 (primary mouse microglia; Mus musculus, Microglia, read-out: phagocytosis EC50) [µM] | increased phagocytosis (primary mouse microglia; primary mouse microglia from neonate mice) [fold] |
| --- | --- | --- | --- | --- | --- | --- | --- | --- |
| CC(C)CCC[C@@H](C)[C@H]1CC[C@H]2[C@@H]3CCC4C[C@H](N)CC[C@]4(C)[C@H]3CC[C@]12C (stereo partly drawn) [Compound 13, 3α‐aminocholestane, reference compound] | 201 | – | – | – | – | – | – | – |
| CC(=O)C1=C(C)Nc2sc(C(=O)c3ccc(Cl)c(Cl)c3)c(N)c2C1c1cccnc1 (stereo not shown) [Compound 2] | 18.6 | 46 ± 5 | 30 ± 7 (2) % | Yes | inactive | inactive | – | – |
| Clc1ccc(COc2cncc(-c3cnn(C4CCNCC4)c3)c2)c(Cl)c1 [Compound 23, 3‐((2,4‐Dichlorobenzyl)oxy)‐5‐(1‐(piperidin‐4‐yl)‐1H‐pyrazol‐4‐yl)pyridine, reference compound] | 251 | – | 27 ± 15 (3) % | Yes | – | – | 0.54 | 1.5 |
| CC(C)c1ccc(C2C(C#N)=C3N=C(N)c4ccccc4N3C3=C2C(=O)CCC3)cc1 (stereo not shown) [Compound 3] | 26.8 | 173 | 63 ± 12 (2) % | Yes | – | – | – | – |
